The values below come from ChEMBL document CHEMBL1201862, “PubChem BioAssay data set” (2004).

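Protocol summary: plate cells (96-well), add compound at 5 concentrations, incubate 48 h, interpolate endpoints linearly. Abbreviation: GI50, concentration required for 50% inhibition of growth.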 Active and inactive are the calls of the source. Cut-off read from the data, not from the text of the source: active = GI50 up to about 1.1 µM and inactive = higher.

Common to all, as to assay: NCI anticancer screen, dose series, 48 h
The subject of test [1] is SR.
Test [2] deals with Hs-578T.
In test [3] the test system is COLO 205.
Test [4] has as its system SF-268.
For test [5], the system named is HCT-116.
Test [6] has as its system A549.
Test [7] has as its system OVCAR-8.
Test [8] has as its system OVCAR-4.
The subject of test [9] is MDA-N.
Test [10] concerns IGROV-1.
The subject of test [11] is RXF 393.
The subject of test [12] is SK-MEL-2.
For test [13], the system named is UO-31.
The test system of test [14] is HL-60.
In test [15] the test system is PC-3.
The test system of test [16] is MOLT-4.
The test system of test [17] is KM12.
The test system of test [18] is 786-0.
The test system of test [19] is TK-10.
For test [20], the system named is SK-OV-3.

On to `Cc1c(C)c2c(c(N)c1C#N)C(=O)N(Nc1ccccc1)C2=O`, for which the GI50 in test [1] was 66.1 µM (inactive); in [2] it was 46.7 µM (inactive); in test [3], > 100 µM (inactive); in test [4], 40.8 µM (inactive); in [5], > 100 µM (inactive); in [6] it was 74.3 µM (inactive). Besides, the GI50 in test [7] was 33 µM (inactive); in test [8], 33.4 µM (inactive); in test [9], > 100 µM (inactive); in [10], 42.7 µM (inactive); in [11], 20 µM (inactive); in test [12], 96.8 µM (inactive). Further, the GI50 in test [13] is 78.5 µM (inactive); in test [14] it was 26.7 µM (inactive); in test [15], 57.3 µM (inactive); in test [16], 92.7 µM (inactive); in test [17], 36.1 µM (inactive); in test [18] it was 51.9 µM (inactive). The GI50 in test [19] was 28.1 µM (inactive).

As for `CCC(NC1=NCCO1)c1cccs1` (stereo unspecified), the GI50 in test [20] is 13.8 µM (inactive); in test [1], 25.8 µM (inactive); in test [2], 11.2 µM (inactive); in test [3], 17.3 µM (inactive); in test [5] it was 14.1 µM (inactive); in [6] it was 14.1 µM (inactive). For the same molecule, the GI50 is 16.7 µM (inactive) in [7]; 23.9 µM (inactive) in [8]; 14.6 µM (inactive) in test [9]; 20.8 µM (inactive) in test [10]; 19 µM (inactive) in test [11]; 15.5 µM (inactive) in test [12]. The GI50 in test [13] was 18.7 µM (inactive); in [14], 18.6 µM (inactive); in test [15], 13.4 µM (inactive); in [16], > 100 µM (inactive); in test [17], 18 µM (inactive); in [18] it was 15.3 µM (inactive). In addition, in [19], the GI50 is 15.8 µM (inactive).

For the molecule `COc1cc2c(cc1OC)[C@@](C)(C(O)C(O)C(C)(C)O)NCC2` (stereo partly specified), the GI50 in test [20], in test [1], in [2], in [3], in test [4] and in test [5] was > 100 µM (inactive) throughout. For the same molecule, the GI50 in [6], in test [7], in test [8], in [9], in test [10] and in test [11] was > 100 µM (inactive) in each case. Also, the GI50 in test [12], in test [13], in test [14], in test [15], in test [16] and in test [18] was > 100 µM (inactive) in each case. For the same molecule, the GI50 in test [19] was > 100 µM (inactive).

For `C(=N\c1ccc(-c2nc3ccccc3[nH]2)cc1)/c1ccco1`, the GI50 in [1] was 37.2 µM (inactive); in test [2], > 100 µM (inactive); in test [3] it was 43.9 µM (inactive); in test [4], > 100 µM (inactive); in [5] it was 57.3 µM (inactive); in test [6], > 100 µM (inactive). Also, the GI50 in test [7] is 34.4 µM (inactive); in [8] it was 70 µM (inactive); in [9], 48.1 µM (inactive); in [10], > 100 µM (inactive); in [11], 73.8 µM (inactive); in test [12], 67.8 µM (inactive). The GI50 in test [13] was 75.7 µM (inactive); in [14], 24.3 µM (inactive); in test [15], 33.6 µM (inactive); in [16], 29.3 µM (inactive); in [17] it was 48.6 µM (inactive); in test [18] it was > 100 µM (inactive). Also, the GI50 in test [19] is > 100 µM (inactive).

With `COc1cc(/C=N\N(C)C)cc(/C=N/N(C)C)c1O`, the GI50 was 15.5 µM (inactive) in [20]; 12.5 µM (inactive) in test [1]; 3.53 µM (inactive) in [2]; 17.1 µM (inactive) in test [3]; 38.5 µM (inactive) in [4]; 29.8 µM (inactive) in [5]. Also, the GI50 in test [6] is > 100 µM (inactive); in test [8], 49.2 µM (inactive); in [9], 25.9 µM (inactive); in [11], 43.1 µM (inactive); in test [12] it was 7.89 µM (inactive); in [13], 22 µM (inactive). The GI50 was 9.71 µM (inactive) in test [14]; 16.4 µM (inactive) in test [15]; < 0.01 µM (active) in [16]; > 100 µM (inactive) in test [17]; 24.4 µM (inactive) in test [18]; 55.7 µM (inactive) in test [19].

For `Cc1ccc2c(c1)[nH]c(=S)n2/C=C1\C(=O)Oc2ccccc2C1=O`, the GI50 in test [1] is 71.6 µM (inactive); in test [2] it was 25.5 µM (inactive); in test [3], 99.3 µM (inactive); in test [4], 55.7 µM (inactive); in test [5], 44.9 µM (inactive); in [6] it was 77.4 µM (inactive). The GI50 in [7] is 65.8 µM (inactive); in test [8] it was 64.1 µM (inactive); in test [9], 90.6 µM (inactive); in [10], 39 µM (inactive); in test [11] it was 30.5 µM (inactive); in [12], > 100 µM (inactive). Moreover, the GI50 is 30.2 µM (inactive) in [13]; 55 µM (inactive) in [14]; 76.7 µM (inactive) in test [15]; 38.2 µM (inactive) in [16]; 84.5 µM (inactive) in test [17]; 42.8 µM (inactive) in test [18]. In [19], the GI50 was > 100 µM (inactive).

Turning to `CCOC(=O)CC1c2ccc(O)cc2OC(=O)C1c1ccc([N+](=O)[O-])cc1` (stereo unspecified), the GI50 in test [20] is 33.3 µM (inactive); in [1] it was 31.8 µM (inactive); in test [2], 46.7 µM (inactive); in [3], 15.7 µM (inactive); in [4] it was 40 µM (inactive); in [5], 22.5 µM (inactive). Also, the GI50 was 27.5 µM (inactive) in [6]; 29 µM (inactive) in test [7]; 27.7 µM (inactive) in test [8]; 28.6 µM (inactive) in [9]; 21.5 µM (inactive) in [10]; 16.9 µM (inactive) in [11]. Moreover, the GI50 in test [12] is 17 µM (inactive); in [14], 34.1 µM (inactive); in [15], 22.5 µM (inactive); in test [16] it was 22.8 µM (inactive); in test [17], 34.3 µM (inactive); in test [18], 41.3 µM (inactive). Also, the GI50 in test [19] was 30.3 µM (inactive).

Turning to `CC(C)(C)c1cc(-c2cc(C(C)(C)C)[nH]n2)[nH]n1`, the GI50 in test [20] is > 100 µM (inactive); in test [1] it was 39.1 µM (inactive); in [2], > 100 µM (inactive); in test [3], > 100 µM (inactive); in test [4], > 100 µM (inactive); in test [5], > 100 µM (inactive). Further, the GI50 in [6], in [8], in [9], in test [10], in test [11] and in test [12] was > 100 µM (inactive) throughout. The GI50 in test [13] is > 100 µM (inactive); in [14], 46.8 µM (inactive); in [15], > 100 µM (inactive); in test [16] it was 96.2 µM (inactive); in test [18], > 100 µM (inactive); in test [19], > 100 µM (inactive).

Consider `COC(=O)n1c(=O)nc2c3c(ncn21)Oc1c(c(-c2ccccc2)nn1-c1ccccc1)C3c1ccc(Cl)cc1` (stereo unspecified), for which the GI50 in test [20] was 3.29 µM (inactive); in test [1], 1.82 µM (inactive); in test [2], 1.17 µM (inactive); in test [3] it was 1.45 µM (inactive); in test [4] it was 1.3 µM (inactive); in test [5], 1.01 µM (active). The GI50 in test [6] is 1.77 µM (inactive); in test [7] it was 1.63 µM (inactive); in test [8], 2.39 µM (inactive); in [9], 1.66 µM (inactive); in [11], 1.63 µM (inactive); in test [12], 1.7 µM (inactive). For the same molecule, the GI50 in test [13] was 1.68 µM (inactive); in test [14], 1.51 µM (inactive); in test [15], 1.59 µM (inactive); in [17] it was 1.37 µM (inactive); in test [18], 1.49 µM (inactive); in test [19], 1.79 µM (inactive).

`CN(Cc1cnc2nc(N)nc(N)c2n1)c1ccc(C(=O)NC(CCC(=O)NC(P(=O)(O)O)P(=O)(O)O)C(=O)O)cc1` (stereo unspecified): the GI50 was 9.06 µM (inactive) in test [1]; > 100 µM (inactive) in [2]; > 100 µM (inactive) in [3]; 20.3 µM (inactive) in [4]; 4.49 µM (inactive) in test [5]; 15.3 µM (inactive) in [6]. Also, the GI50 in [7] was 4.33 µM (inactive); in test [8], > 100 µM (inactive); in [9] it was 16.2 µM (inactive); in test [10], 36.7 µM (inactive); in test [11], 4.79 µM (inactive); in test [12], 6.07 µM (inactive). Besides, the GI50 in test [13] is 78.2 µM (inactive); in [14], 7.18 µM (inactive); in test [15] it was 5.62 µM (inactive); in [16], 52.8 µM (inactive); in test [17] it was 8.34 µM (inactive); in [18], 7.31 µM (inactive). Besides, the GI50 in test [19] is > 100 µM (inactive).

As for `N#C[BH2-][n+]1ccc(C(=O)NNCc2ccccc2)cc1`, the GI50 in [1], in test [2], in test [3], in test [4], in [5] and in test [6] was > 100 µM (inactive) each time. In addition, the GI50 in [7], in test [8], in test [9], in test [10], in test [11] and in [12] was > 100 µM (inactive) each time. The GI50 in test [13], in [14], in test [15], in test [16], in test [17] and in [18] was > 100 µM (inactive) in each case. In test [19], the GI50 is > 100 µM (inactive).
